Experimental data from patent US20140128357A1, “METHODS OF PRODUCING AND USING BRASSINOSTEROIDS TO PROMOTE GROWTH, REPAIR AND MAINTENANCE OF SKELETAL MUSCLE AND SKIN” (Rutgers University, priority 2010, published 2014).

Legend:
[1] = tested on: orchiectomized (ORX) Wistar rats; assay: 10-d Hershberger assay in ORX rats, subcutaneous HB (Protocol 4); type: in vivo, rat; conditions: for increase in gastrocnemius muscle mass: subcutaneous
Experimental: Protocol 4: Four-week-old sham-operated (sham, n=6) or orchiectomized (ORX, n=24) Wistar rats (Charles River Laboratories, MA) were subject to a 10-d Hershberger assay (surgically castrated peri-pubertal adult model) under the following experimental conditions: sham, ORX (vehicle), ORX (0.4 mg/kg HB subcutaneously), ORX (4 mg/kg HB subcutaneously), and ORX (0.4 mg/kg testosterone propionate subcutaneously, serving as a positive control for the assay). All procedures and measurements followed protocol 1. […]

[2] = tested on: cutaneous wound in C57BL/6J mice; assay: Mouse cutaneous injury model of wound healing; type: in vivo
Experimental: Under volatile anesthesia (5% isoflurane to effect), the shoulder and back region of each animal was shaved. A sharp punch (ID 6 mm) over their lumbar spine was applied to remove the skin, including panniculus carnosus and adherent tissues. Test substances were administered topically (TOP), immediately following cutaneous injury, once daily for 10 consecutive days. […] Wounds were traced onto clear plastic sheets and were measured by use of an ImageJ program (rsbweb.nih.gov/ij/), online from the National Institutes of Health (NIH). ImageJ is a public domain, Java-based image processing program developed at the NIH. Time to wound closure was estimated by comparing the area of the wound undergoing treatment to the areas of the wound undergoing control treatments. The percent closure of the wound (%) was calculated, and wound half-closure time (the time at which 50% of the cutaneous wound is closed, CT50) was analyzed by linear regression using Graph-Prism (Graph Software USA). At the end of experiment (10 days after the induction of the wound), animals were euthanized by CO2 gas inhalation. Blood was collected by heart puncture. Wound tissue and muscle were collected for immunohistochemical analyses and wound healing factor assays. HB increased the percent of wound closure in vivo in a mouse model of wound closure (FIG. 13). […] Twenty seven six-week-old male C57BL/6J mice, obtained from the Jackson Laboratory (Bar Harbor, Me.), were housed in individual chambers in a room maintained at a constant temperature with 12 h light-dark cycle. Mice had free access to food and water. Mice were allowed to adapt to new conditions for seven days and handling the mice was performed daily during this time to reduce the stress of physical manipulation. Mice were randomized into groups (n=9) according to body weight one day prior to dosing. Under volatile anesthesia (5% isoflurane to effect), the shoulder and back region of each animal was shaved. A sharp punch (ID 6 mm) over lumbar spine was applied to remove the skin including panniculus carnosus and adherent tissues. […] Pharmacol. 77: 1117-1124, 2009) as a positive control) was administered topically, immediately following cutaneous injury, and then daily for 10 days. To investigate the kinetics of wound healing, wound size was photographed and measured every two days with ImageJ software (rsbweb.nih.gov/ij/). […] The percent closure of the wound (%) was calculated, and time at which 50% of the cutaneous wound was closed (CT50) was analyzed by linear regression. […] Wound sizes were photographed and measured every 2 days for 10 days. Wound closure (%) relative to day 1 was determined every 2 days, and CT50 was calculated by linear regression. […]

[3] = tested on: fully differentiated L6 rat skeletal myotubes; assay: MTT cell viability in L6 myotubes; type: cell-based; conditions: up to 25 μM
Experimental: In various aspects, cell viability is measured and the effects of doses of compound and test reagents are tested in cell lines. In some aspects, cell viability was measured by the MTT (3-(4,5-Dimethylthiazol-2-yl)-2,5-diphenyltetrazolium bromide) assay in triplicate (Mosmann et al., J. Immunol. Methods 65:55-63, 1983) and quantified spectrophotometrically at 550 nm using a microplate reader (Molecular Devices, Sunnyvale, Calif.).

[4] = tested on: collagen and elastin in skin; assay: Collagen and elastin in skin of rats given oral HB (Example 16); type: in vivo, rat; conditions: 20 and 60 mg/kg oral daily 24 d, written in present tense
Experimental: To evaluate the potential anabolic effects of plant brassinosteroids on the skin of animals, 20 and 60 mg/kg body weight of HB (HB20 and HB60, respectively) are orally administered daily to healthy rats fed normal diet for 24 d.
Collagen and elastin production are measured in the skin of animals treated with HB versus their control counterparts. Protein degradation of collagen and elastin is measured in the skin of animals treated with HB versus their control counterparts, e.g., by collagen or elastin ELISAs. The amount of collagen and elastin protein present in the skin of animals treated with HB is measured versus their control counterparts.

[5] = Cytotoxicity, MTT assay in 3T3 fibroblasts; type: cell-based, mouse; conditions: mouse
[6] = 0.4 mg/kg subcutaneous daily 10 d
[7] = 4 mg/kg subcutaneous daily 10 d
[8] = 10 μg/mouse/day topically for 10 days

Row | Structure (SMILES) | Bulbocavernosus/levator ani weight [1, 6] [mg] | Cowper's gland weight [1, 6] [mg] | Glans penis weight [1, 6] [mg] | Seminal vesicles weight [1, 6] [mg] | Ventral prostate weight [1, 6] [mg] | Bulbocavernosus/levator ani weight [1, 7] [mg] | Cowper's gland weight [1, 7] [mg] | Glans penis weight [1, 7] [mg] | Seminal vesicles weight [1, 7] [mg] | Ventral prostate weight [1, 7] [mg] | increase in gastrocnemius muscle mass ([1]; one-fold dose of positive control (0.4 mg/kg)) [%] | increase in gastrocnemius muscle mass ([1]; ten-fold dose of positive control (4 mg/kg)) [%] | CT50, time at which 50% of the cutaneous wound is closed [2, 8] [days] | cutaneous wound healing compared with vehicle [2, 8] | increase in speed of wound closure relative to control mice ([2]; 10 μg/mouse/day topically, percent of original wound size) [fold] | toxicity to L6 myotubes (MTT assay and cytological observations) [3] | collagen and elastin production in skin [4] | IC50 [5] [µM]
1 | CC[C@@H](C(C)C)[C@H](O)[C@@H](O)[C@@H](C)[C@H]1CC[C@H]2[C@@H]3COC(=O)[C@H]4C[C@H](O)[C@H](O)C[C@]4(C)[C@H]3CC[C@]12C [Compound 1, (22S,23S,24S)-2α,3α,22,23-tetrahydroxy-24 ethyl-β-homo-7-oxo-5α-cholestane-6-one] | 131.3 ± 7.1 | 11.3 ± 0.5 | 50.7 ± 1.9 | 29.0 ± 3.1 | 18.3 ± 1.2 | 147.5 ± 6.9 | 10.5 ± 0.3 | 56.3 ± 3.3 | 30.2 ± 1.2 | 23.2 ± 1.2 | 2.8 | 9.1 | 5.4 ± 0.3 | significantly improved | 2 | no toxicity | increases collagen and elastin production in skin | –
2 | CC[C@@H](C(C)C)[C@H](O)[C@@H](O)[C@@H](C)[C@H]1CC[C@H]2[C@@H]3CC(=O)[C@H]4C[C@H](O)[C@H](O)C[C@]4(C)[C@H]3CC[C@]12C [Compound 2, (22S,23S,24S)-2α,3α, 22,23-tetrahydroxy-24-ethyl-5α-cholestan-6-one] | – | – | – | – | – | – | – | – | – | – | – | – | – | – | – | – | – | > 30
